Measurements: publication PMC4579270, “Identification and Characterization of an Irreversible Inhibitor of CDK2” (Chemistry & Biology, 2015)
Like-named read-outs stand apart in the source and are kept apart here.

Columns and labels:
Test in all cases: Dundee kinase screen re-test (standard format and 4 hour pre-incubation)
Type in all cases: biochemical
CDK2-Cyclin A = CDK2-Cyclin A (Homo sapiens, UniProt P24941); settings: for remaining activity at 0.5 µM: CDK2/cyclin A
Summary of the method: (§1)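 Selectivity panel of 131 protein kinases, inhibitor tested at a single concentration of 1 µM; values are % kinase activity remaining, mean of duplicates. Re-test of selected kinases used 0.5 µM in the standard format and again after a 4 hour pre-incubation with the inhibitor.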

BTK = BTK (Homo sapiens, UniProt Q06187)
Summary of the method: as §1

CLK2 = CLK2 (Homo sapiens, UniProt P49760); settings: CLK2, 0.5µM
Summary of the method: as §1

MST4 = MST4 (Homo sapiens, UniProt Q9P289); settings: MST4, 0.5µM
Summary of the method: as §1

IRR = IRR (Homo sapiens, UniProt P14616)
Summary of the method: as §1

IR = IR (Homo sapiens, UniProt P06213)
Summary of the method: as §1

CDK9-Cyclin T1 = CDK9-Cyclin T1 (Homo sapiens, UniProt P50750); settings: CDK9/cyclin T1, 0.5µM
Summary of the method: as §1

TBK1 = biological target: T1, TBK1 (Homo sapiens, UniProt Q9UHD2); settings: TBK1, 0.5µM
T1 sequence (Q9UHD2 1-729): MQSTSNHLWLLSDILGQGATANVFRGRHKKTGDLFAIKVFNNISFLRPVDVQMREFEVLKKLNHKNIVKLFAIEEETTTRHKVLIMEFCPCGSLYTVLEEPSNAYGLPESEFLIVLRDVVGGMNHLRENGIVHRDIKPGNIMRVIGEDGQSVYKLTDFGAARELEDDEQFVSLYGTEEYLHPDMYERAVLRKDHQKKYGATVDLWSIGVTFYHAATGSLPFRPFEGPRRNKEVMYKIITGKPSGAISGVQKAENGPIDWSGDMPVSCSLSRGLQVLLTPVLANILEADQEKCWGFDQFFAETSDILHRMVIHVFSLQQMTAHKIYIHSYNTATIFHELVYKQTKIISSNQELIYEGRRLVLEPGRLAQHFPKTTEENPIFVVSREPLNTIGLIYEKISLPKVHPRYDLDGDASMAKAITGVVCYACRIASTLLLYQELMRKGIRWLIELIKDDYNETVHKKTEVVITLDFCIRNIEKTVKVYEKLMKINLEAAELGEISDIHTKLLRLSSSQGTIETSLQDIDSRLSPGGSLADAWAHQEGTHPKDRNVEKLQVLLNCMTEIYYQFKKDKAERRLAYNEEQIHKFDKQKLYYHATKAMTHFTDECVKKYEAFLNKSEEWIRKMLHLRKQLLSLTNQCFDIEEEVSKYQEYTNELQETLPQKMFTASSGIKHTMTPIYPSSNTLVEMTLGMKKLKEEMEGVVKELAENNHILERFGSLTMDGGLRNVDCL
Summary of the method: as §1

MLK1 = MLK1 (Homo sapiens, UniProt P80192); settings: MLK1, 0.5µM
Summary of the method: as §1

CHK1 = biological target: T2, CHK1 (Homo sapiens, UniProt O14757); settings: CHK1, 0.5µM
T2 sequence (O14757 1-476): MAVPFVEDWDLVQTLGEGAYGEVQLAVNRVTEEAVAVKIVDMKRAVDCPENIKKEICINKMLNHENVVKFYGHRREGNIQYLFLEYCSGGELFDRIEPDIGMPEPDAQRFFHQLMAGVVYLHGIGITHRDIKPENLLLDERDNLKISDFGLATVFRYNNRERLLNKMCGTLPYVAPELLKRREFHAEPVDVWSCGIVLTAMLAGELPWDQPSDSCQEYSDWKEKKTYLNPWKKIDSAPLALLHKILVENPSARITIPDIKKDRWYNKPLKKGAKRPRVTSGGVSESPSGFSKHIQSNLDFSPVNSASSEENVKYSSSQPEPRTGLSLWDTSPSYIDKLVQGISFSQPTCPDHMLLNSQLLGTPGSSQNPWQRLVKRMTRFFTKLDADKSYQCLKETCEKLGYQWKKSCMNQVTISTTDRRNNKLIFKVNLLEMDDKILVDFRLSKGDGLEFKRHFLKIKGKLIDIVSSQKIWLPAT
Summary of the method: as §1

JAK2 = JAK2 (Homo sapiens, UniProt O60674); settings: JAK2, 0.5µM
Summary of the method: as §1

[1] = 4hr RT preincubation, read-out: %Remaining activity at 0.5µM NU6300 - 4hr RT preincubation
[2] = usual format, read-out: %Remaining activity at 0.5µM NU6300 - Usual assay format

Sequence of JAK2 (O60674 whole entry): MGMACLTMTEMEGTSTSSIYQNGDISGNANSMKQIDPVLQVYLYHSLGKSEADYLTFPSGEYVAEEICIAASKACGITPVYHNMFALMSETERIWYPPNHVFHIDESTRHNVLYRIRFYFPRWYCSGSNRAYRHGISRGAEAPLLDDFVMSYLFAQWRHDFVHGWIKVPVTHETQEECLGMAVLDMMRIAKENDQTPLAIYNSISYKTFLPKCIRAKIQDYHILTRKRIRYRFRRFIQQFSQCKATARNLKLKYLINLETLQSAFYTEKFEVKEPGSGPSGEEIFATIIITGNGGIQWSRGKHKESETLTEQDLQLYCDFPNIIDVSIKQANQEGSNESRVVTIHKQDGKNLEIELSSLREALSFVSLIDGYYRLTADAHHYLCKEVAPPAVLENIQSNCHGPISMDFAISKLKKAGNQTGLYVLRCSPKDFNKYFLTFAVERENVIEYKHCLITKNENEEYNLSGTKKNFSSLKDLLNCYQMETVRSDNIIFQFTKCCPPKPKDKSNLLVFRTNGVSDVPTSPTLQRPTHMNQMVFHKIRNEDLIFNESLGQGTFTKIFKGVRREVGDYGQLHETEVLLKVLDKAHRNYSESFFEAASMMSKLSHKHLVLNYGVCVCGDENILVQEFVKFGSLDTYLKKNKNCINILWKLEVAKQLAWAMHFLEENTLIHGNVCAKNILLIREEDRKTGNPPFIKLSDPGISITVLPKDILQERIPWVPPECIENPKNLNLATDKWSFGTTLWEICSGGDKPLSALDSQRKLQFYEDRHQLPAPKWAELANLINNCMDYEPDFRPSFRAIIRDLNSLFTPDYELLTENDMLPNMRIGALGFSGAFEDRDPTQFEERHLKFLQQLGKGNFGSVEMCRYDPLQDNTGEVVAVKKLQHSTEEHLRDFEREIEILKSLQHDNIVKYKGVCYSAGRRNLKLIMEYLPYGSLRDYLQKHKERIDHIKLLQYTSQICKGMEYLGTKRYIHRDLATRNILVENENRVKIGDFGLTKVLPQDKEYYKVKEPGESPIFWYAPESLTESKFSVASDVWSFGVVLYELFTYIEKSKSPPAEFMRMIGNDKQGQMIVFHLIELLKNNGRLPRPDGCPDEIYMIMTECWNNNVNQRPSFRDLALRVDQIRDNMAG
Sequence of CLK2 (P49760 whole entry): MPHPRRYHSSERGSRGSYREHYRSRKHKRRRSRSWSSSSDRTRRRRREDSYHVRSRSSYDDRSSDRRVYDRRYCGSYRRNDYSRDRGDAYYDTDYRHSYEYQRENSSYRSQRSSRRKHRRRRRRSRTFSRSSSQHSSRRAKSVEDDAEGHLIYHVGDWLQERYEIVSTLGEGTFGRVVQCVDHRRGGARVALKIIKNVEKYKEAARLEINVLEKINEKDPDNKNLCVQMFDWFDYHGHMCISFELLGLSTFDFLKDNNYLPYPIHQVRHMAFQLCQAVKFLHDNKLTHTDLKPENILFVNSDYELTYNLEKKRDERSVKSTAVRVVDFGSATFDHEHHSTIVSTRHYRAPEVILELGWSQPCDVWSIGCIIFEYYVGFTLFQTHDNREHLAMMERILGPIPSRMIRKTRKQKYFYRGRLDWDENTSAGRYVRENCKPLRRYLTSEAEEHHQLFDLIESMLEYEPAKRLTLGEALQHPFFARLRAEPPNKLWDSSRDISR
Sequence of MLK1 (P80192 whole entry): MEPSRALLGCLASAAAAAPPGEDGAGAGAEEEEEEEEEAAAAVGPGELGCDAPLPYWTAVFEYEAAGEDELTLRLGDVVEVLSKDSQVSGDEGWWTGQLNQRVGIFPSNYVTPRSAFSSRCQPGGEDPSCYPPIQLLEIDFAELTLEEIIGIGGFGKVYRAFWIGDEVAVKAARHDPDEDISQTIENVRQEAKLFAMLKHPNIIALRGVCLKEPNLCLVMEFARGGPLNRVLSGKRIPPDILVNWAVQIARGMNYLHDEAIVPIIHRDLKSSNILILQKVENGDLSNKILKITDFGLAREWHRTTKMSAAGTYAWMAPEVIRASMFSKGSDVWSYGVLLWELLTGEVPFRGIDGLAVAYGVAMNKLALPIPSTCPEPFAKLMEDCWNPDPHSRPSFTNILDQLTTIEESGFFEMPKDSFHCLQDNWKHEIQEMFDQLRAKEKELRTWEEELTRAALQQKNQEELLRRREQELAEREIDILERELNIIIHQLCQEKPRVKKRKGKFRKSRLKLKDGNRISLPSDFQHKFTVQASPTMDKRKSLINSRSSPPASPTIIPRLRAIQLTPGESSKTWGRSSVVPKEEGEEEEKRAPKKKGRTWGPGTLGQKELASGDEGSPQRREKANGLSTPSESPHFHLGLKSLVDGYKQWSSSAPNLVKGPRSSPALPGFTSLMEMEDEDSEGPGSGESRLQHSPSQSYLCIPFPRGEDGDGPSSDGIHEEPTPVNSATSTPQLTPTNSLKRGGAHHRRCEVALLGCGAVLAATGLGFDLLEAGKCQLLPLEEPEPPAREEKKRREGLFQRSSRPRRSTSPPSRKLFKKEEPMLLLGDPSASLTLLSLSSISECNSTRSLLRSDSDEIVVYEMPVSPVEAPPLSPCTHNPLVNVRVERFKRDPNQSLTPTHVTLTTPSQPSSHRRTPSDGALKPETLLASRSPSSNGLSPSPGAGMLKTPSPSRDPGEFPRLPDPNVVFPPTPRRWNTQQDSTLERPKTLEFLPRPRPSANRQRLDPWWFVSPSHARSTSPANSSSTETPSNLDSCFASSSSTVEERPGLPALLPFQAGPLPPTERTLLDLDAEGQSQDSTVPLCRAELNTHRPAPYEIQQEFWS
Sequence of IRR (P14616 27-1297): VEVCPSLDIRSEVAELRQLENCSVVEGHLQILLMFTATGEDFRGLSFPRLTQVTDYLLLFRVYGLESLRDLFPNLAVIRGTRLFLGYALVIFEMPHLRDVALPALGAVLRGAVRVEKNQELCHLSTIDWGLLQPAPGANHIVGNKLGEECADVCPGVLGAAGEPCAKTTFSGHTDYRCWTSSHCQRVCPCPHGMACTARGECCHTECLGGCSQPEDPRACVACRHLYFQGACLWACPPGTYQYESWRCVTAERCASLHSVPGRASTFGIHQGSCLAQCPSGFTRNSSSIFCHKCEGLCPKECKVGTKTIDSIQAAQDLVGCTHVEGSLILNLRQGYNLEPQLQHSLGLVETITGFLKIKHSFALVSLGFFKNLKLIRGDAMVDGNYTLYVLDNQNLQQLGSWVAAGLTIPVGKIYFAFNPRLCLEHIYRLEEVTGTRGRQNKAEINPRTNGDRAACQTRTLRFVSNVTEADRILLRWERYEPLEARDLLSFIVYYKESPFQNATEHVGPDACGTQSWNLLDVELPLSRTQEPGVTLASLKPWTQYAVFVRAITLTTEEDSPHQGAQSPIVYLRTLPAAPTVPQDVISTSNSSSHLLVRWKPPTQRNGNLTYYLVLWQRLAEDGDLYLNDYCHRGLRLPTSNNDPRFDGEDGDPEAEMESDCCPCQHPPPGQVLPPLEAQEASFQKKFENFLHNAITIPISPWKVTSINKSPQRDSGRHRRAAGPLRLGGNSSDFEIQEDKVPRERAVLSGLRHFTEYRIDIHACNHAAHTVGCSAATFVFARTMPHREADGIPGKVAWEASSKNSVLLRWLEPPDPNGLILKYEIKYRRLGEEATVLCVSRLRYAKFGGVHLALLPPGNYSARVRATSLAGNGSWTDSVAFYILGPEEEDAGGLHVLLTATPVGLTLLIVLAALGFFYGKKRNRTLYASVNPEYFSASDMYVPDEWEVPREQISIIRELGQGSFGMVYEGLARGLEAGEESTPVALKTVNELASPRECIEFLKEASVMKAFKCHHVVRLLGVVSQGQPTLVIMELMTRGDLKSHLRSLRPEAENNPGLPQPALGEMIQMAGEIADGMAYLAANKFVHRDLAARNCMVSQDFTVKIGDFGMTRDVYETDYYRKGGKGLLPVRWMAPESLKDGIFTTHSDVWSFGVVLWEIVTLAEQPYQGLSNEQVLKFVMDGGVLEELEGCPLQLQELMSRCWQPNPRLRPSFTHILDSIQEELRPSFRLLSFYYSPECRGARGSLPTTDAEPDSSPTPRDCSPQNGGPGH
Sequence of BTK (Q06187 whole entry): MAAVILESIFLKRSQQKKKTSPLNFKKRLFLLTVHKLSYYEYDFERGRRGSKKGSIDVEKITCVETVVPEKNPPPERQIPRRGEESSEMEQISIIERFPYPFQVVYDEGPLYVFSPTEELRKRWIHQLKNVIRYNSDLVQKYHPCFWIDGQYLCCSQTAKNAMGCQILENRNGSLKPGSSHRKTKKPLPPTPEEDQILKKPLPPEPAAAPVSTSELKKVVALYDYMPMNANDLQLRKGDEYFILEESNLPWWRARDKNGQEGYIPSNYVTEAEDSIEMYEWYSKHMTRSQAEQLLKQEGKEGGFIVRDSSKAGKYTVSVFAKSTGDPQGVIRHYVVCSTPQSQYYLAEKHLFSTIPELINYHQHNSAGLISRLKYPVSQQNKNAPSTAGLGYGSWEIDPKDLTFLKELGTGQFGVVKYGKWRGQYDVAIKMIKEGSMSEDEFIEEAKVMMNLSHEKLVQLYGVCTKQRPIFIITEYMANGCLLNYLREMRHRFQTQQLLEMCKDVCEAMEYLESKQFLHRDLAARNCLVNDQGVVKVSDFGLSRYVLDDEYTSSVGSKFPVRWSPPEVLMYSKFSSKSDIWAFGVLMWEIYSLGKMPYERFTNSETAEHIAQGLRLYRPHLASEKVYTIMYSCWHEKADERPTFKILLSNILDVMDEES
Sequence of MST4 (Q9P289 whole entry): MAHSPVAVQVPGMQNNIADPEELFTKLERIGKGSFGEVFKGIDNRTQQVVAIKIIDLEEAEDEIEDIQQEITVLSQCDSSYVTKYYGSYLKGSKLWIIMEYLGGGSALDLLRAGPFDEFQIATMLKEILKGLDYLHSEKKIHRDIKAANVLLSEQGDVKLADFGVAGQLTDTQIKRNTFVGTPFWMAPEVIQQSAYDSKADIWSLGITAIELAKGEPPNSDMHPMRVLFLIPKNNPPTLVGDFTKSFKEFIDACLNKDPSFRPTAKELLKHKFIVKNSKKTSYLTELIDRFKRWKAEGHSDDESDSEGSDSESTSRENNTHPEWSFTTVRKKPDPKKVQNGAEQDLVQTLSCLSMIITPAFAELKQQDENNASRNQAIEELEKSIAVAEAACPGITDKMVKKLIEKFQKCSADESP

C=CS(=O)(=O)c1ccc(Nc2nc(OCC3CCCCC3)c3nc[nH]c3n2)cc1 [NU6300, 6-(cyclohexylmethoxy)-N-(4-(vinylsulfonyl)phenyl)-9H-purin-2-amine]
remaining activity at 0.5 µM (CDK2-Cyclin A; [1]): 9%
remaining activity at 0.5 µM (CDK2-Cyclin A; [2]): 26%
additional loss of activity after pre-incubation (CDK2-Cyclin A; CDK2, 4-hr pre-incubation vs usual format, 0.5 µM): > 50%
remaining activity at 0.5 µM (BTK; [1]): 28%
remaining activity at 0.5 µM (BTK; [2]): 18%
remaining activity at 0.5 µM (CLK2; [1]): 104%
remaining activity at 0.5 µM (CLK2; [2]): 35%
remaining activity at 0.5 µM (MST4; [1]): 94%
remaining activity at 0.5 µM (MST4; [2]): 74%
remaining activity at 0.5 µM (IRR; [1]): 45%
remaining activity at 0.5 µM (IRR; [2]): 73%
remaining activity at 0.5 µM (IR; [1]): 58%
remaining activity at 0.5 µM (IR; [2]): 48%
remaining activity at 0.5 µM (CDK9-Cyclin T1; [1]): 127%
remaining activity at 0.5 µM (CDK9-Cyclin T1; [2]): 89%
remaining activity at 0.5 µM (TBK1; [1]): 75%
remaining activity at 0.5 µM (TBK1; [2]): 62%
remaining activity at 0.5 µM (MLK1; [1]): 29%
remaining activity at 0.5 µM (MLK1; [2]): 4%
remaining activity at 0.5 µM (CHK1; [1]): 42%
remaining activity at 0.5 µM (CHK1; [2]): 72%
remaining activity at 0.5 µM (JAK2; [1]): 7%
remaining activity at 0.5 µM (JAK2; [2]): 9%
